Data set [1] concerns Staphulococcus aureus (ATCC 29213). Put plainly: Minimum inhibitory concentration (MIC) assay, Example 33. The note with it: Staphylococcus aureus. The format is cell-based, Staphylococcus aureus. The method in brief: (§1)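 Following CLSI guidelines, each bacterial strain was taken from a twice-restreaked agar colony and suspended to 0.5 McFarland density. After a 1:100 dilution it was mixed 1:2 with 2-fold serially diluted compound in CAMHB. The MIC was read after incubation at 35 °C.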

The subject of data set [2] is Candida albicans (ATCC 90029). The description is as above. The data set is classed as cell-based. The note with it: Candida albicans. The method in brief: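 Broth microdilution per CLSI guidelines in RPMI 1640; inoculum set to OD530 0.08–0.13, diluted 1:50 then 1:20 to 2× strength and mixed 1:2 with 2-fold serial compound dilutions. Incubated at 35° C; MIC read per CLSI.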

Data set [3] relates to Pseudomonas aeruginosa (ATCC 27853). The data set is described as above. The data set is classed as cell-based. The following applies: Pseudomonas aeruginosa. The method in brief: as §1
Data set [4] deals with Escherichia coli (ATCC 25922). Described as above. The data set is classed as cell-based. The note with it: Escherichia coli. The method in brief:
as §1

A short description of data set [5]: pH (Table 1). The data set is classed as physicochemical.
Data set [6] is described as follows: Solubility (Sol., Table 1). The format is physicochemical.
The subject of data set [7] is Aspergillus niger (CMCC 98003). Put plainly: Minimum inhibitory concentration (MIC) assay, Example 33. The format is cell-based. The note with it: Aspergillus niger. The method in brief: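 Broth microdilution MIC per CLSI guidelines in RPMI 1640 with serial 2-fold compound dilutions. Spore suspension from sporulating colonies adjusted to OD530 0.09-0.13, diluted 1:50 as 2× inoculum and added 1:2 to drug wells; plates incubated at 35 °C and MIC read per CLSI.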

Data set [8] deals with Staphylococcus aureus (ATCC 29213). Description: Time kill study, Example 33 (0 to 5 min). The following applies: 1×MIC. The format is cell-based. The method in brief: (§2)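 Per CLSI guidelines, strain suspensions were mixed 1:1 by volume with compound solution; samples taken at 0 min, 30 sec, 1 min and 5 min were diluted and plated on agar. Colonies were counted after 24 to 48 hrs incubation and viable counts reported as Log10 CFU/mL.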

Data set [9] concerns Pseudomonas aeruginosa (ATCC 27853). Put plainly: Time kill study, Example 33 (0 to 5 min). The note with it: 1×MIC. The data set is classed as cell-based. A digest of the protocol:
as §2

In data set [10] the test system is Escherichia coli (ATCC 25922). Description: Time kill study, Example 33 (0 to 5 min). The note with it: 1×MIC. The format is cell-based. A digest of the protocol: as §2

Experimental findings from patent US20140357713A1, “ANTIMICROBIAL COMPOUNDS AND METHODS OF USE” (NexMed Holdings, Inc., priority 2012, published 2014) are described below.

Structures can show the parent of a compound that is named as a salt. Where two headings read alike, the source gives them in different places.

`CCCCCCCCCCCCOC(=O)C(C)N(C)C` (stereo not drawn) (as salt: methanesulfonate) [Nex-22, Dodecyl 2-(dimethylamino)propanoate methanesulfonate]: the melting point (commonly the temperature of the solid-liquid transition) is 66 to 72 °C.
`CCCCCCCCCCCC(C)(C)OC(=O)C(C)N(C)C.Cl` (stereo not drawn) [Nex-65, 2-Methyltridecan-2-yl 2-(dimethylamino)propanoate hydrochloride] returned a melting point of 100 to 106 °C. Besides, the MIC – broadly, the least concentration at which growth counts as inhibited – in data set [1] (ATCC29213, Table 19 summary, read-out: MIC) stood at 3130 µg/mL. In data set [1] (ATCC29213, n = 1, read-out: MIC S. aureus), the MIC is 3130 µg/mL. The MIC in data set [1] (ATCC29213, n = 2, read-out: MIC S. aureus) was 3130 µg/mL. The MIC in [2] (ATCC90029, Table 19 summary, read-out: MIC) is above 12500 µg/mL. Moreover, the MIC in data set [2] (ATCC90029, n = 1, read-out: MIC Candida albicans) is above 12500 µg/mL. Besides, the MIC in data set [2] (ATCC90029, n = 2, read-out: MIC Candida albicans) is above 12500 µg/mL. Moreover, the MIC in [3] (ATCC27853, Table 19 summary, read-out: MIC) was 6250 µg/mL. In data set [3] (ATCC27853, n = 1, read-out: MIC P. aeruginosa), the MIC amounted to 6250 µg/mL. Further, the MIC in [3] (ATCC27853, n = 2, read-out: MIC P. aeruginosa) came out at 6250 µg/mL. The MIC in data set [4] (ATCC25922, Table 19 summary of Example 33 and Example 35, read-out: MIC) is 3130 µg/mL. In data set [4] (ATCC25922, n = 1, read-out: MIC E. coli), the MIC worked out at 3130 µg/mL. For the same compound, the MIC in data set [4] (ATCC25922, n = 2, read-out: MIC E. coli) worked out at 3130 µg/mL. Besides, the pH in data set [5] is 1.66. Moreover, the Sol. in [6] is on record as 51%. Besides, the MIC in data set [7] (CMCC98003, Table 19 summary, read-out: MIC) is above 12500 µg/mL. Further, the MIC in data set [7] (CMCC98003, n = 1, read-out: MIC Aspergillus niger) is above 12500 µg/mL. The MIC in [7] (CMCC98003, n = 2, read-out: MIC Aspergillus niger) was above 12500 µg/mL. In data set [8] (0.5 min), the “Viable counts, Staphylococcus aureus time kill study” value turned out to be 6.39 Log10 CFU/mL. In addition, the “Viable counts, Staphylococcus aureus time kill study” value in [8] (1 min) amounted to 6.35 Log10 CFU/mL. Further, the “Viable counts, Staphylococcus aureus time kill study” value in [8] (5 min) was 6.17 Log10 CFU/mL. Moreover, the “Viable counts, Staphylococcus aureus time kill study” value in [8] (time 0) was 6.34 Log10 CFU/mL. Also, the “Viable counts, Pseudomonas aeruginosa time kill study” value in data set [9] (0.5 min) came to 5.36 Log10 CFU/mL. Further, in data set [9] (1 min), the “Viable counts, Pseudomonas aeruginosa time kill study” value came to 5.52 Log10 CFU/mL. For the same compound, in data set [9] (5 min), the “Viable counts, Pseudomonas aeruginosa time kill study” value is below 3.52 Log10 CFU/mL. For the same compound, in data set [9] (time 0), the “Viable counts, Pseudomonas aeruginosa time kill study” value amounted to 5.52 Log10 CFU/mL. Also, the “Viable counts, Escherichia coli time kill study” value in data set [10] (0.5 min) amounted to 5.72 Log10 CFU/mL. Also, the “Viable counts, Escherichia coli time kill study” value in [10] (1 min) was 5.97 Log10 CFU/mL. In data set [10] (5 min), the “Viable counts, Escherichia coli time kill study” value turned out to be 4.22 Log10 CFU/mL. In addition, the “Viable counts, Escherichia coli time kill study” value in data set [10] (time 0) was found to be 5.68 Log10 CFU/mL.
`CCCCCCCCCCCCOC(=O)C(C)N(C)C` (stereo not drawn) (as salt: salt) [Nex-46, Dodecyl 2-(dimethylamino)propanoate 2-hydroxyethanesulfonate] registered a melting point of 58 to 63 °C.
Still for that read-out and setting: next, `CCCCCCCCCCCCOC(=O)C(C)N(C)C` (stereo not drawn) (as salt: maleate) [Nex-20, Dodecyl 2-(dimethylamino)propanoate maleate]: 65 to 70 °C.
